Data on 1 compound can be found in patent publication US7807701B2, “Dibenzylamine compounds and pharmaceutical use thereof” (Japan Tobacco Inc., priority 2002, dated 2010).

A short description of the assay: Concomitant use test with simvastatin in rabbits on high cholesterol food. Particulars: high cholesterol food for 15 days with simvastatin (0.002%) and/or Example 168 (0.2%), control group = 100%. It counts as in vivo, Japanese white rabbits. The text has this: For the experiment, 10-week-old male Japanese white rabbits (manufactured by KITAYAMA LABES Co., Ltd.) were used. The animal was acclimated on normal food (RC-4, manufactured by Oriental Bio-Service Co.) and fasted for 24 hr and a high cholesterol food (0.25% cholesterol-added RC-4, manufactured by Oriental Bio-Service Co.) was given by 100 g/day per rabbit (preliminary feeding) for 3 days. On the next day of day 3 of preliminary feeding, blood was taken from the auricular artery before feeding, and the animals were grouped by 6 rabbits per group based on the parameters (HDL cholesterol content, total cholesterol content, triglyceride content) of plasma and body weight.
Foods were prepared (manufactured by Oriental Bio-Service Co.) by adding simvastatin (0.002%), compound (0.2%) of Example 168, or simvastatin (0.002%)+compound (0.2%) of Example 168 to a high cholesterol food, and each food was given to the grouped animals by 100 g/day per rabbit for 15 days. At 8 hr after feeding on day 15, the total blood was taken from the carotid artery under anesthesia, HDL cholesterol content, total cholesterol content and ApoA-I content in plasma were measured. The arteriosclerosis index was calculated from [(total cholesterol content-HDL cholesterol content)/HDL cholesterol content]. Furthermore, the HDL3 fraction was separated from plasma by ultracentrifugation and the cholesterol content of the fraction was measured. In Table, arteriosclerotic index, ApoA-1 content and HDL3 cholesterol content are shown based on the value of the control group as 100%.

For the compound `CCC(C)(C)C(=O)O[C@H]1C[C@@H](C)C=C2C=C[C@H](C)[C@H](CC[C@@H]3C[C@@H](O)CC(=O)O3)[C@H]21` [simvastatin, reference compound], the “Arteriosclerotic index (%)” value is reported as 53%. Further, the “HDL3 cholesterol content (%)” value (plasma HDL3 fraction) was found to be 128%. Under “plasma”, the “ApoA-I content (%)” value was determined as 114%.
